Entries after “also recorded” stand apart in the source; their conditions may differ. Where two headings read alike, the source gives them in different places.
Tests used:
Huh7 [1] = experiment: SRB cytotoxicity assay, Huh7; type: cell-based; settings: Homo sapiens
MCF-7 = experiment: SRB cytotoxicity assay, MCF-7; type: cell-based; settings: Homo sapiens, MCF7, 72 h, read-out: IC50 (μM) ± S.D. MCF-7
HCT116 = experiment: SRB cytotoxicity assay, HCT116; type: cell-based; settings: Homo sapiens, HCT-116, 72 h, read-out: IC50 (μM) ± S.D. HCT116
HepG2 = experiment: SRB cytotoxicity assay, HepG2; type: cell-based; settings: Homo sapiens, HepG2, read-out: IC50 (μM) ± S.D. HepG2
Mahlavu [2] = experiment: SRB cytotoxicity assay, Mahlavu; type: cell-based; settings: Homo sapiens, read-out: IC50 (μM) ± S.D. Mahlavu
SNU475 = experiment: SRB cytotoxicity assay, SNU475; type: cell-based; settings: Homo sapiens, SNU-475, read-out: IC50 (μM) ± S.D. SNU475
[3] = target: tubulin obtained from bovine brains (Bos taurus, UniProt P81947+Q6B856); experiment: Inhibition of [3H]colchicine binding to tubulin; settings: for inhibition at 50 µM: read-out: Colchicine binding % inhibition ± SD, 50 μM; for Colchicine binding % inhibition ± SD, 50 μM: 50 μM compound, tubulin 1 μM, [3H]colchicine 5 μM
Mahlavu [4] = experiment: Real-time cell monitoring; type: cell-based, human; settings: RT-CES, increasing concentrations, 72 h, vs DMSO control
Huh7 [5] = experiment: Flow cytometry cell cycle analysis, Huh7; type: cell-based, human; settings: propidium iodide; for cell cycle phase arrest, Huh7, higher concentration: 72 h at 10 μM; for cell cycle phase arrest, Huh7: 72 h at IC50 concentration
Mahlavu [6] = experiment: Flow cytometry cell cycle analysis, Mahlavu; type: cell-based, human; settings: propidium iodide; for cell cycle phase arrest, Mahlavu, higher concentration: 72 h at 10 μM; for cell cycle phase arrest, Mahlavu: 72 h at IC50 concentration
[7] = test system: Huh7, HepG2, Mahlavu and SNU475 cells; experiment: Detection of apoptosis by Hoechst 33258 staining; type: cell-based, human; settings: 48 h, IC100 concentrations, all four HCC lines
six cancer cell lines = experiment: SRB assay, six cancer cell lines taken together; type: cell-based; settings: Homo sapiens, read-out: IC50 range against the six cancer cell lines examined
[8] = Huh-7, 72 h, read-out: IC50 (μM) ± S.D. Huh7
[9] = Huh-7, read-out: IC50 (μM) ± S.D. Huh7 (HCC cell lines)

Chain of tubulin obtained from bovine brains (Q6B856 whole entry): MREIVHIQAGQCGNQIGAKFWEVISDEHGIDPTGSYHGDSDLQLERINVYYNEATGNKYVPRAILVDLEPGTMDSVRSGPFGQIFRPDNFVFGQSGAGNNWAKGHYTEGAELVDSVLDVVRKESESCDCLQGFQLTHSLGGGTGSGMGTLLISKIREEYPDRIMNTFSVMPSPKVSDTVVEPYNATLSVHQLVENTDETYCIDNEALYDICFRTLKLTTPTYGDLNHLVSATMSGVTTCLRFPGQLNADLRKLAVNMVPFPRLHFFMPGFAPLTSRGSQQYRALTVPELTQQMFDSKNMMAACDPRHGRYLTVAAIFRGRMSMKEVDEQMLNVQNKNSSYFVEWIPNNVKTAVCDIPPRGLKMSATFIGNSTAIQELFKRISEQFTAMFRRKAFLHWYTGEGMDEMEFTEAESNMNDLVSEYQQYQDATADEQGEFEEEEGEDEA
Chain of tubulin obtained from bovine brains (P81947 whole entry): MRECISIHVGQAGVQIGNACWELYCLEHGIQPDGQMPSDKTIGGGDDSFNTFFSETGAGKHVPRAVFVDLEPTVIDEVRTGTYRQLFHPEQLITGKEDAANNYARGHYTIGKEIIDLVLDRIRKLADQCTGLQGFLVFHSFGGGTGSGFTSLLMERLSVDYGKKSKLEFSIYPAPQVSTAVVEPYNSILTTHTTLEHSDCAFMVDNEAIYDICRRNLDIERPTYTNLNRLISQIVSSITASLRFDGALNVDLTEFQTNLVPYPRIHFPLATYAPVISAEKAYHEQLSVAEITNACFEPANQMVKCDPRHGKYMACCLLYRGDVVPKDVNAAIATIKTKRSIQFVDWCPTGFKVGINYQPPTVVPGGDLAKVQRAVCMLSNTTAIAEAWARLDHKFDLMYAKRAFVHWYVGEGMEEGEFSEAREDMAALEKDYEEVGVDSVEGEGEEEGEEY

SMILES | IC50 (Huh7 [1]; [8]) | IC50 (MCF-7) | IC50 (HCT116) | further results
O=C(Nc1ccc(Cl)cc1)c1cc(-c2c[nH]c3ccccc23)n[nH]1 [Compound 22, N-(4-Chlorophenyl)-3-(1H-indol-3-yl)-1H-pyrazole-5-carboxamide] | > 50 µM | 29.8 ± 3.1 µM | > 50 µM | 
CNC(=O)c1cc(Oc2ccc(NC(=O)Nc3ccc(Cl)c(C(F)(F)F)c3)cc2)ccn1 [Sorafenib, sorafenib, reference compound] | 6.5 ± 0.7 µM | 13.8 ± 1.2 µM | 12 ± 0.6 µM | IC50 (Huh7 [1]; [9]): 6.5 ± 0.7 µM; IC50 (HepG2): 4.4 ± 0.8 µM; IC50 (Mahlavu [2]): 8.3 ± 1 µM; IC50 (SNU475): 9.6 ± 0.5 µM
COc1cc(CNC(=O)c2cc(-c3c[nH]c4ccccc34)n[nH]2)cc(OC)c1OC [Compound 13, 3-(1H-Indol-3-yl)-N-(3,4,5-trimethoxybenzyl)-1H-pyrazole-5-carboxamide] | 17.2 ± 2.1 µM | 17.9 ± 1 µM | 31 ± 2.4 µM | 
CC(C)(C)c1ccc(NC(=O)c2cc(-c3c[nH]c4ccccc34)n[nH]2)cc1 [Compound 11, N-(4-(tert-Butyl)phenyl)-3-(1H-indol-3-yl)-1H-pyrazole-5-carboxamide] | 0.6 ± 0.4 µM | 1 ± 0.1 µM | 1.2 ± 0.5 µM | IC50 (Huh7 [1]; [9]): 0.6 ± 0.4 µM; IC50 (HepG2): 2.7 ± 0.9 µM; IC50 (Mahlavu [2]): 3.4 ± 0.8 µM; IC50 (SNU475): 4.3 ± 0.9 µM; inhibition at 50 µM [3]: 9.4 ± 2%; real-time cell growth (cell index) inhibition, Mahlavu (Mahlavu [4]): dose-dependent growth inhibition; cell cycle phase arrest, Huh7, higher concentration (Huh7 [5]): arrest in the S phase; cell cycle phase arrest, Huh7 (Huh7 [5]): did not cause a significant change; cell cycle phase arrest, Mahlavu, higher concentration (Mahlavu [6]): arrest in the S phase; cell cycle phase arrest, Mahlavu (Mahlavu [6]): arrest in the S phase; apoptotic nuclear morphology (Hoechst staining) [7]: visible nuclear blebs or deformed nuclei
O=C(NC1CCN(Cc2ccccc2)CC1)c1cc(-c2c[nH]c3ccccc23)n[nH]1 [Compound 27, N-(1-Benzylpiperidin-4-yl)-3-(1H-indol-3-yl)-1H-pyrazole-5-carboxamide] | 6.8 ± 0.7 µM | 8.6 ± 0.2 µM | 8.9 ± 0.7 µM | 
COc1ccc(OC)c(NC(=O)c2cc(-c3c[nH]c4ccccc34)n[nH]2)c1 [Compound 18, N-(2,5-Dimethoxyphenyl)-3-(1H-indol-3-yl)-1H-pyrazole-5-carboxamide] | 0.6 ± 0.1 µM | 3.6 ± 0.4 µM | 1.4 ± 0.5 µM | IC50 (Huh7 [1]; [9]): 0.6 ± 0.2 µM; IC50 (HepG2): 1.3 ± 0.09 µM; IC50 (Mahlavu [2]): 2.9 ± 0.8 µM; IC50 (SNU475): 2.9 ± 1.13 µM; Colchicine binding % inhibition ± SD, 50 μM [3]: Inhibition was observed; inhibition at 50 µM [3]: 23 ± 3%; IC50 (six cancer cell lines): 0.6 to 3.6 µM; cell cycle phase arrest, Huh7, higher concentration (Huh7 [5]): cell cycle arrest in the G2/M phase; also recorded: cell cycle arrest at the G2/M phase; cell cycle phase arrest, Huh7 (Huh7 [5]): did not cause a significant change; cell cycle phase arrest, Mahlavu, higher concentration (Mahlavu [6]): cell cycle arrest in the G2/M phase; also recorded: cell cycle arrest at the G2/M phase; cell cycle phase arrest, Mahlavu (Mahlavu [6]): arrest in the G2/M phase; apoptotic nuclear morphology (Hoechst staining) [7]: visible nuclear blebs or deformed nuclei; also recorded: induced apoptotic cell death
O=C(Nc1ccccc1)c1cc(-c2c[nH]c3ccccc23)n[nH]1 [Compound 14, 3-(1H-Indol-3-yl)-N-phenyl-1H-pyrazole-5-carboxamide] | 16.8 ± 3.8 µM | 22.2 ± 1.8 µM | > 50 µM | 
O=C(c1cc(-c2c[nH]c3ccccc23)n[nH]1)N1CCCCC1 [Compound 19, (3-(1H-Indol-3-yl)-1H-pyrazol-5-yl)(piperidin-1-yl)methanone] | 19.1 ± 1.8 µM | 21.7 ± 2 µM | 23 ± 3.5 µM | 
O=C(c1cc(-c2c[nH]c3ccccc23)n[nH]1)N1CCOCC1 [Compound 20, (3-(1H-Indol-3-yl)-1H-pyrazol-5-yl)(morpholino)methanone] | > 50 µM | > 50 µM | > 50 µM | 
COc1cc(NC(=O)c2cc(-c3c[nH]c4ccccc34)n[nH]2)cc(OC)c1 [Compound 16, N-(3,5-Dimethoxyphenyl)-3-(1H-indol-3-yl)-1H-pyrazole-5-carboxamide] | 4.5 ± 0.1 µM | 2.6 ± 0.5 µM | 6.2 ± 1 µM | 
O=C(NCc1cccnc1)c1cc(-c2c[nH]c3ccccc23)n[nH]1 [Compound 25, 3-(1H-Indol-3-yl)-N-(pyridin-3-ylmethyl)-1H-pyrazole-5-carboxamide] | 29.1 ± 1 µM | 36.5 ± 4 µM | 26.8 ± 2.1 µM | 
O=C(NCc1ccccn1)c1cc(-c2c[nH]c3ccccc23)n[nH]1 [Compound 26, 3-(1H-Indol-3-yl)-N-(pyridin-2-ylmethyl)-1H-pyrazole-5-carboxamide] | 35.4 ± 1.8 µM | > 50 µM | 34 ± 1.1 µM | 
CCCCNC(=O)c1cc(-c2c[nH]c3ccccc23)n[nH]1 [Compound 21, N-Butyl-3-(1H-indol-3-yl)-1H-pyrazole-5-carboxamide] | > 50 µM | 26.7 ± 0.5 µM | 23.1 ± 5.1 µM | 
CSc1ccc(NC(=O)c2cc(-c3c[nH]c4ccccc34)n[nH]2)cc1 [Compound 12, 3-(1H-Indol-3-yl)-N-(4-(methylthio)phenyl)-1H-pyrazole-5-carboxamide] | 6.3 ± 1.6 µM | 2 ± 0.2 µM | 9 ± 1.9 µM | 
COc1ccc(NC(=O)c2cc(-c3c[nH]c4ccccc34)n[nH]2)cc1OC [Compound 17, N-(3,4-Dimethoxyphenyl)-3-(1H-indol-3-yl)-1H-pyrazole-5-carboxamide] | 2.8 ± 1.2 µM | 1.7 ± 0.4 µM | 10.1 ± 0.7 µM | 
O=C(Nc1ccc(Br)cc1)c1cc(-c2c[nH]c3ccccc23)n[nH]1 [Compound 23, N-(4-Bromophenyl)-3-(1H-indol-3-yl)-1H-pyrazole-5-carboxamide] | > 50 µM | 39.3 ± 1 µM | > 50 µM | 
COc1cc(NC(=O)c2cc(-c3c[nH]c4ccccc34)n[nH]2)cc(OC)c1OC [Compound 10, 3-(1H-Indol-3-yl)-N-(3,4,5-trimethoxyphenyl)-1H-pyrazole-5-carboxamide] | 1 ± 0.2 µM | 2.1 ± 0.1 µM | 2.5 ± 0.3 µM | IC50 (Huh7 [1]; [9]): 1 ± 0.2 µM; IC50 (HepG2): 2.9 ± 0.1 µM; IC50 (Mahlavu [2]): 2.7 ± 0.4 µM; IC50 (SNU475): 4.1 ± 2.1 µM; Colchicine binding % inhibition ± SD, 50 μM [3]: Inhibition was observed; inhibition at 50 µM [3]: 26 ± 7%; real-time cell growth (cell index) inhibition, Mahlavu (Mahlavu [4]): noticeable inhibition in cell growth in 6 μM concentration; cell cycle phase arrest, Huh7 (Huh7 [5]): arrest in the G0/G1 phase; apoptotic nuclear morphology (Hoechst staining) [7]: visible nuclear blebs or deformed nuclei
O=C(NCc1ccncc1)c1cc(-c2c[nH]c3ccccc23)n[nH]1 [Compound 24, 3-(1H-Indol-3-yl)-N-(pyridin-4-ylmethyl)-1H-pyrazole-5-carboxamide] | 30.4 ± 1.4 µM | 31.2 ± 2.6 µM | 33.2 ± 1 µM | 
O=C(c1cc(-c2c[nH]c3ccccc23)n[nH]1)N1CCN(Cc2ccc(C(F)(F)F)cc2)CC1 [Compound 29, (3-(1H-Indol-3-yl)-1H-pyrazol-5-yl)(4-(4-(trifluoromethyl)benzyl)piperazin-1-yl)methanone] | 1.7 ± 1.8 µM | 3 ± 0.8 µM | 4.1 ± 2 µM | 
COc1ccc(NC(=O)c2cc(-c3c[nH]c4ccccc34)n[nH]2)cc1 [Compound 15, 3-(1H-Indol-3-yl)-N-(4-methoxyphenyl)-1H-pyrazole-5-carboxamide] | 8.6 ± 2.1 µM | 5.5 ± 0.5 µM | 11.9 ± 1 µM | 
O=C(c1cc(-c2c[nH]c3ccccc23)n[nH]1)N1CCN(c2ccc(C(F)(F)F)cc2)CC1 [Compound 28, (3-(1H-Indol-3-yl)-1H-pyrazol-5-yl)(4-(4-(trifluoromethyl)phenyl)piperazin-1yl)methanone] | 16.2 ± 3.2 µM | 16.1 ± 1.7 µM | 27.6 ± 2.4 µM | 

Reference: PMC10208593 (Journal of molecular structure, 2023)
